Where two headings read alike, the source gives them in different places.
Legend:
Delta Opioid Receptor = biological target: T1, Delta Opioid Receptor (Rattus norvegicus, UniProt P33533); assay: Rat brain delta opioid receptor binding assay ([3H]DPDPE or [3H]naltrindole)
T1 construct: the forebrains were homogenized in Tris buffer in a Teflon®-glass homogenizer; from tissue; host or cells: forebrain of male Wistar rats, particulate membrane preparation

Mu Opioid Receptor = biological target: T2, Mu Opioid Receptor (Rattus norvegicus, UniProt P33535); assay: Rat brain mu opioid receptor binding assay ([3H]DAMGO)
T2 construct: the forebrains were homogenized in Tris buffer in a Teflon®-glass homogenizer; from tissue; host or cells: forebrain of male Wistar rats, particulate membrane preparation
T2 sequence (P33535 whole entry): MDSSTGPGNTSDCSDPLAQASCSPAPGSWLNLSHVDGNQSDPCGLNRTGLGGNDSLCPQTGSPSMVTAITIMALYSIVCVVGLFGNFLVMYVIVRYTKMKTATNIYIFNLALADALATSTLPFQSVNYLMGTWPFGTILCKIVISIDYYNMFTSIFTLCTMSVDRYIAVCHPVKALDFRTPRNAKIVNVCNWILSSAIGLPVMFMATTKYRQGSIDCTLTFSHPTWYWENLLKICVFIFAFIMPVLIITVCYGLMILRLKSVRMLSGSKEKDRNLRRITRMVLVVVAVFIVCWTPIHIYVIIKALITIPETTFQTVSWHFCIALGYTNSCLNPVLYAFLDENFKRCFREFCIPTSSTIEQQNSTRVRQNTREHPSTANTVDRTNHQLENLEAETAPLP

δ-opioid receptor = δ-opioid receptor (Mus musculus, UniProt P32300); assay: [35S]GTPγS δ-opioid receptor functional assay (EC50, relative efficacy, % inhibition); assay type: biochemical; set-up: NG108-15 cell membranes were purchased from Applied Cell Sciences (Rockville, Md.); settings: for inhibition at 10 µM: read-out: GTPγS δ-opioid receptor % Inh @10 μM
Sequence of δ-opioid receptor (P32300 whole entry): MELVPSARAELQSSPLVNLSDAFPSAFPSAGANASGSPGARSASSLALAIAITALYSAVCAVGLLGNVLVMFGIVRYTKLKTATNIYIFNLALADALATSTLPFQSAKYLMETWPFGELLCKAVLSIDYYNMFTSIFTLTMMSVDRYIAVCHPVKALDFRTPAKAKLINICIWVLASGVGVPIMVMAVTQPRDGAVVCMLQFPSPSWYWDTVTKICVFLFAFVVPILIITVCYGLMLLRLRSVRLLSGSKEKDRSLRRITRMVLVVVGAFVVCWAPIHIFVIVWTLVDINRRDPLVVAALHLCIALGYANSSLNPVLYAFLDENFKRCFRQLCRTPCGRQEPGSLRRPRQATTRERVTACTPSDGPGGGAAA

[1] = rat forebrain membranes, ~4 nM [3H]DPDPE, read-out: δ-binding (DPDPE ligand) Ki
[2] = rat forebrain membranes, ~0.8 nM [3H]DAMGO, read-out: μ-binding Ki
[3] = rat forebrain membranes, 0.25 nM [3H]naltrindole, read-out: δ-binding (Naltrindole ligand) Ki

T1 sequence (P33533 whole entry): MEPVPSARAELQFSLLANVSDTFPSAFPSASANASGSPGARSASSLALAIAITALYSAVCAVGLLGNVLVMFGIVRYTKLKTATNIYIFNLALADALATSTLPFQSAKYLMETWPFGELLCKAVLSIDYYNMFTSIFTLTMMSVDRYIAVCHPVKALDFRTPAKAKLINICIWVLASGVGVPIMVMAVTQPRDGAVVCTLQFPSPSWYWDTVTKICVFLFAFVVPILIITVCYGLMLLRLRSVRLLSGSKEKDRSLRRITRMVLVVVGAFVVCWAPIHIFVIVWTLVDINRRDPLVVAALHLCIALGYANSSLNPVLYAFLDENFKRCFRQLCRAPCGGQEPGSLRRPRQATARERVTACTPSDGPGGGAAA

COc1ccc(Oc2ccc(NC3CCCNC3)c(Oc3ccc(OC)cc3)c2)cc1 (racemic) [Cpd 54]
Ki (Delta Opioid Receptor; [1]): 492 nM | Ki (Mu Opioid Receptor): 9700 nM

COc1ccc(Oc2ccc(NCC3CCCNC3)c(Oc3ccc(OC)cc3)c2)cc1 (racemic) [Cpd 61]
Ki (Delta Opioid Receptor; [1]): 111 nM | Ki (Mu Opioid Receptor; [2]): > 10000 nM | EC50 (δ-opioid receptor): 4070 nM | inhibition at 10 µM (δ-opioid receptor): 16.1%

CCN(CC)C(=O)CCc1ccc(NC[C@@H]2CCCN2)c(Oc2ccc(OC)cc2)c1 [Cpd 2, N,N-Diethyl-3-[3-(4-methoxyphenoxy)-4-{[(2S)-pyrrolidin-2-ylmethyl]amino}phenyl]propanamide]
Ki (Delta Opioid Receptor; [3]): 26.4 nM | Ki (Mu Opioid Receptor; [2]): > 100000 nM | GTPγS δ-opioid receptor Rel Efficacy (δ-opioid receptor): 0.8333 | inhibition at 10 µM (δ-opioid receptor): 22.8% | EC50 (δ-opioid receptor; read-out: GTPγS δ-opioid receptor EC50): 39.1 nM

COc1ccc(CCc2ccc(NC[C@@H]3CCCN3)c(Oc3ccc(OC)cc3)c2)cc1 [Cpd 3, (S)-{2-(4-Methoxy-phenoxy)-4-[2-(4-methoxy-phenyl)-ethyl]-phenyl}-pyrrolidin-2-ylmethyl-amine]
Ki (Delta Opioid Receptor; [3]): 120 nM | Ki (Mu Opioid Receptor; [2]): > 10000 nM

COc1ccc(Oc2cc(CCc3cccc(OC)c3)ccc2NC[C@@H]2CCCN2)cc1 [Cpd 4]
Ki (Delta Opioid Receptor; [3]): 210 nM

COc1ccc(Oc2cc(CCc3ccccc3)ccc2NC[C@@H]2CCCN2)cc1 [Cpd 5]
Ki (Delta Opioid Receptor; [3]): 239 nM

COc1ccc(Oc2cc(CCc3ccc(F)cc3)ccc2NC[C@@H]2CCCN2)cc1 [Cpd 6]
Ki (Delta Opioid Receptor; [3]): 684 nM

COc1ccc(Oc2cc(CCc3cccc(F)c3)ccc2NC[C@@H]2CCCN2)cc1 [Cpd 7]
Ki (Delta Opioid Receptor; [3]): 229 nM

CCN(CC)C(=O)c1cccc(CCc2ccc(NC[C@@H]3CCCN3)c(Oc3ccc(OC)cc3)c2)c1 [Cpd 8, (S)-N,N-Diethyl-3-(2-{3-(4-methoxy-phenoxy)-4-[(pyrrolidin-2-ylmethyl)-amino]-phenyl}-ethyl)-benzamide]
Ki (Delta Opioid Receptor; [3]): 127 nM | Ki (Mu Opioid Receptor): 9000 nM

CCN(CC)C(=O)c1ccc(NC[C@@H]2CCCN2)c(Oc2ccccc2)c1 [Cpd 9, (S)-N,N-Diethyl-3-phenoxy-4-[(pyrrolidin-2-ylmethyl)-amino]-benzamide]
Ki (Delta Opioid Receptor; [3]): 1020 nM | Ki (Mu Opioid Receptor; [2]): > 10000 nM

CCN(CC)C(=O)c1ccc(NC[C@@H]2CCCN2)c(Oc2ccccc2OC)c1 [Cpd 11]
Ki (Delta Opioid Receptor; [1]): 105 nM | EC50 (δ-opioid receptor): 319 nM

N#Cc1ccc(Oc2cc(-c3ccccc3)ccc2NC[C@@H]2CCCN2)cc1 [Cpd 12, (S)-4-{4-[(Pyrrolidin-2-ylmethyl)-amino]-biphenyl-3-yloxy}-benzonitrile]
Ki (Delta Opioid Receptor; [3]): 996 nM | Ki (Mu Opioid Receptor; [2]): > 10000 nM

N#Cc1cccc(Oc2cc(-c3ccccc3)ccc2NC[C@@H]2CCCN2)c1 [Cpd 13]
Ki (Delta Opioid Receptor; [3]): 402 nM

c1ccc(Oc2cc(-c3ccccc3)ccc2NC[C@@H]2CCCN2)cc1 [Cpd 14]
Ki (Delta Opioid Receptor; [3]): 113 nM

COc1cccc(Oc2cc(-c3ccccc3)ccc2NC[C@@H]2CCCN2)c1 [Cpd 15]
Ki (Delta Opioid Receptor; [3]): 289 nM

Fc1ccc(Oc2cc(-c3ccccc3)ccc2NC[C@@H]2CCCN2)cc1 [Cpd 16]
Ki (Delta Opioid Receptor; [3]): 419 nM

FC(F)(F)Oc1ccc(Oc2cc(-c3ccccc3)ccc2NC[C@@H]2CCCN2)cc1 [Cpd 17]
Ki (Delta Opioid Receptor; [3]): 1470 nM

Clc1cccc(Cl)c1Oc1cc(-c2ccccc2)ccc1NC[C@@H]1CCCN1 [Cpd 18]
Ki (Delta Opioid Receptor; [3]): 108 nM | EC50 (δ-opioid receptor): 1040 nM | GTPγS δ-opioid receptor Rel Efficacy (δ-opioid receptor): 0.763 | inhibition at 10 µM (δ-opioid receptor): 23.4%

CNCCNc1ccc(-c2ccccc2)cc1Oc1ccc(OC)cc1 [Cpd 19]
Ki (Delta Opioid Receptor; [3]): 192 nM | Ki (Mu Opioid Receptor; [2]): > 10000 nM

COC(=O)c1ccc(Oc2cc(-c3ccccc3)ccc2NC[C@@H]2CCCN2)cc1 [Cpd 20]
Ki (Delta Opioid Receptor; [3]): 779 nM

COC(=O)c1cccc(Oc2cc(-c3ccccc3)ccc2NC[C@@H]2CCCN2)c1 [Cpd 21]
Ki (Delta Opioid Receptor; [3]): 887 nM

Clc1ccc(Oc2cc(-c3ccccc3)ccc2NC[C@@H]2CCCN2)c(Cl)c1 [Cpd 22]
Ki (Delta Opioid Receptor; [3]): 698 nM

COc1ccc(Oc2cc(-c3ccccc3)ccc2NC2CCNCC2)cc1 [Cpd 23]
Ki (Delta Opioid Receptor; [3]): 461 nM | Ki (Mu Opioid Receptor; [2]): > 10000 nM

COc1ccc(Oc2cc(-c3cncc(OC)c3)ccc2NC[C@@H]2C[C@@H](F)CN2)cc1 [Cpd 27]
Ki (Delta Opioid Receptor; [3]): 1000 nM

COc1ccc(Oc2cc(-c3cncc(C)c3)ccc2NC[C@@H]2C[C@@H](F)CN2)cc1 [Cpd 28]
Ki (Delta Opioid Receptor): 6.81 nM | Ki (Mu Opioid Receptor): 4670 nM | EC50 (δ-opioid receptor): 165 nM | GTPγS δ-opioid receptor Rel Efficacy (δ-opioid receptor): 0.8756

NC(=O)c1ccc(Oc2cc(-c3ccccc3)ccc2NC[C@@H]2CCCN2)cc1 [Cpd 29, (S)-4-{4-[(Pyrrolidin-2-ylmethyl)-amino]-biphenyl-3-yloxy}-benzamide]
Ki (Delta Opioid Receptor; [3]): 147 nM | Ki (Mu Opioid Receptor; [2]): > 10000 nM

O=C(O)c1ccc(Oc2cc(-c3ccccc3)ccc2NC[C@@H]2CCCN2)cc1 [Cpd 31, (S)-4-{4-[(Pyrrolidin-2-ylmethyl)-amino]-biphenyl-3-yloxy}-benzoic acid]
Ki (Delta Opioid Receptor; [3]): 7690 nM | Ki (Mu Opioid Receptor; [2]): > 10000 nM

O=C(O)c1cccc(Oc2cc(-c3ccccc3)ccc2NC[C@@H]2CCCN2)c1 [Cpd 32]
Ki (Delta Opioid Receptor; [3]): 2670 nM

CCN(CC)C(=O)c1ccc(Oc2cc(-c3ccccc3)ccc2NC[C@@H]2CCCN2)cc1 [Cpd 33, (S)-N,N-Diethyl-4-{4-[(pyrrolidin-2-ylmethyl)-amino]-biphenyl-3-yloxy}-benzamide]
Ki (Delta Opioid Receptor; [3]): 284 nM | Ki (Mu Opioid Receptor): 9300 nM

CCN(CC)C(=O)c1cccc(Oc2cc(-c3ccccc3)ccc2NC[C@@H]2CCCN2)c1 [Cpd 34]
Ki (Delta Opioid Receptor; [3]): 310 nM

COc1ccc(Oc2cc(-c3ccc4ccccc4c3)ccc2NC[C@@H]2CCCN2)cc1 [Cpd 36, (S)-[2-(4-Methoxy-phenoxy)-4-naphthalen-2-yl-phenyl]-pyrrolidin-2-ylmethyl-amine]
Ki (Delta Opioid Receptor; [3]): 290 nM | Ki (Mu Opioid Receptor; [2]): > 10000 nM

COc1ccc(Oc2cc(-c3cccc4ccccc34)ccc2NC[C@@H]2CCCN2)cc1 [Cpd 37]
Ki (Delta Opioid Receptor; [3]): 301 nM

COc1ccc(Oc2cc(-c3ccoc3)ccc2NC[C@@H]2CCCN2)cc1 [Cpd 40]
Ki (Delta Opioid Receptor; [3]): 205 nM

COc1ccc(Oc2cc(-c3ccsc3)ccc2NC[C@@H]2CCCN2)cc1 [Cpd 41]
Ki (Delta Opioid Receptor; [3]): 290 nM

COc1ccc(Oc2cc(-c3ccccc3)ccc2N2CCNCC2)cc1 [Cpd 46, 1-[3-(4-Methoxy-phenoxy)biphenyl-4-yl]piperazine]
Ki (Delta Opioid Receptor): 79.7 nM | Ki (Mu Opioid Receptor; read-out: μ-binding Ki): > 10000 nM

COc1ccc(Oc2cc(-c3ccccc3)ccc2N2CCN(C)CC2)cc1 [Cpd 47, 1-[3-(4-Methoxy-phenoxy)biphenyl-4-yl]-4-methyl-piperazine]
Ki (Delta Opioid Receptor; [3]): 2220 nM | Ki (Mu Opioid Receptor; [2]): > 10000 nM

COc1ccc(Oc2cc(-c3noc(=O)[nH]3)ccc2NC[C@@H]2CCCN2)cc1 [Cpd 48, (S)-3-{3-(4-Methoxy-phenoxy)-4-[(pyrrolidin-2-ylmethyl)-amino]-phenyl}-4H-[1,2,4]oxadiazol-5-one]
Ki (Delta Opioid Receptor; [1]): 492 nM | Ki (Mu Opioid Receptor; [2]): 9700 nM

COc1ccc(Oc2ccc(NC[C@@H](N)CO)c(Oc3ccc(OC)cc3)c2)cc1 [Cpd 55]
Ki (Delta Opioid Receptor; [1]): 1370 nM

COc1ccc(Oc2ccc(NC3CCNCC3)c(Oc3ccc(OC)cc3)c2)cc1 [Cpd 56]
Ki (Delta Opioid Receptor; [1]): 1730 nM | Ki (Mu Opioid Receptor; [2]): > 10000 nM

COc1ccc(Oc2ccc(NC3CC4CCC(C3)N4)c(Oc3ccc(OC)cc3)c2)cc1 (stereo not drawn) [Cpd 57]
Ki (Delta Opioid Receptor; [1]): 1430 nM | Ki (Mu Opioid Receptor; [2]): > 10000 nM

COc1ccc(Oc2ccc(NCC3CNC3)c(Oc3ccc(OC)cc3)c2)cc1 [Cpd 58]
Ki (Delta Opioid Receptor; [1]): 703 nM | Ki (Mu Opioid Receptor; [2]): > 10000 nM

COc1ccc(Oc2ccc(N(CC3CNC3)CC3CNC3)c(Oc3ccc(OC)cc3)c2)cc1 [Cpd 59]
Ki (Delta Opioid Receptor; [1]): 2280 nM | Ki (Mu Opioid Receptor; [2]): > 10000 nM

COc1ccc(Oc2ccc(NC3CN4CCC3CC4)c(Oc3ccc(OC)cc3)c2)cc1 (stereo not drawn) [Cpd 60]
Ki (Delta Opioid Receptor; [1]): 158 nM | Ki (Mu Opioid Receptor; [2]): > 10000 nM

CNCCN(CCNC)c1ccc(Oc2ccc(OC)cc2)cc1Oc1ccc(OC)cc1 [Cpd 64, N-[2,4-Bis-(4-methoxy-phenoxy)-phenyl]-N′-methyl-N-(2-methylamino-ethyl)-ethane-1,2-diamine]
Ki (Delta Opioid Receptor; [1]): 1540 nM | Ki (Mu Opioid Receptor; [2]): > 10000 nM
